Measurements reported in patent publication US8383136B2, “Micelle encapsulation of therapeutic agents” (Wisconsin Alumni Research Foundation, priority 2009, dated 2013).
Converted amounts (≈) assume the structure as drawn. “And” between values parts separate entries of the source, which are not always exact repeats. Identical values can stand only once. Like-named read-outs stand apart in the source and are kept apart here.

Legend:
[1] = % drug loading of PEG-b-PLA micelles (wt drug(s)/wt polymer); type: physicochemical; settings: all drugs of the SDM or MDM together, PEG-b-PLA (4.2K:1.9K) micelles
Protocol: Drug(s) to polymer w/w percent was calculated for SDM and MDM. PEG-b-PLA micelles were freeze dried, weighed and the amount of drug(s) in the freeze dried sample was quantified by HPLC. The drug w/w percent was calculated as the mass of the drug(s) to the mass of polymer in the freeze dried sample multiplied by 100.

[2] = Dynamic light scattering size of SDM and MDM; type: physicochemical; settings: DLS, drug-loaded SDM or MDM
Protocol: The drug-loaded micellar solutions were diluted 20 times with DD H2O and the samples was equilibrated for 2 min at 25° C. before the measurements. […] The hydrodynamic diameter of PEG-b-PLA micelles was calculated based on the Stokes-Einstein equation. Correlation function was curve fitted by cumulant method to calculate mean size and polydispersion index (PDI). All measurements were repeated three times, and volume-weighted particle sizes were presented as the average diameter with standard deviation.

[3] = Physical stability / drug loss from PEG-b-PLA micelles after 24 hours (turbidity, HPLC); type: physicochemical; settings: for initial drug level in water / drug level @ 24 hr in water / % w/w drug(s) left @ 24 hr: PEG-b-PLA micelles
Protocol: Turbidity measurements were used to evaluate the physical stability of drug-loaded PEG-b-PLA micelles. A CARY 50 BIO UV-Visible spectrophotometer equipped with dip probe was used to measure turbidity. Micellar solutions were diluted six times, for a final concentration of PEG-b-PLA of 5 mg/mL, with DD H2O and filtered through 0.45 μm filter. […] Each measurement was performed in triplicate.

[4] = In vitro drug release from PEG-b-PLA micelles (dialysis method); type: physicochemical; settings: 12.5 mM PBS, pH=7.4, 37° C.
Protocol: (§1) SDMs or MDMs were prepared and characterized as described above. Post micelle preparation each sample was diluted with DD H2O, to yield about 0.10 mg/mL of each drug. A volume of 2.5 mL of the prepared sample was loaded into a 3 mL Slide-A-Lyzer® (Thermo Scientific Inc.) dialysis cassette with a MWCO of 20,000 g/mol. Four cassettes were used in each experiment. The cassettes were placed in 2.0 L of buffer which was changed every 3 hours to ensure sink conditions for drug(s) and polymer. A sample of 100 μL was drawn from each cassette at various sampling time intervals and then replaced with 100 μL of fresh buffer. […] The amount of drug(s) in each sample was quantified by HPLC as described above.
Statistical analysis was performed using one-way ANOVA at 5% significance level combined with Tukey's Multiple Comparison Test or t-test at 5% significance level. Curve-fitting analysis using one phase exponential association was used to calculate the half-life (t1/2) of drug in in vitro drug release experiments. Both analyses were performed using GraphPad Prism version 5.00 for Windows, Graph-Pad Software, San Diego Calif. USA, www.graphpad.com.
as §1, with “Post-micelle preparation,” for “Post micelle preparation”, “yield samples of” for “yield”, “reverse phase HPLC.” for “HPLC as described above.”

[5] = tested on: A549 human non-small cell lung cancer cells; experiment: In vitro cytotoxicity, resazurin assay, and combination index; type: cell-based; settings: drug(s) in SDM or MDM, 72 hours, unit inferred
Protocol: (§2) MCF-7 human breast cancer cells were cultured in DMEM medium while 4T1 murine breast cancer cells, A549 human non-small cell lung cancer cells, and LS180 human colon cancer cells were cultured in RPMI1640 medium. Both media were supplemented with 10% fetal bovine serum (FBS) with antibiotics under 5% CO2 and 37° C. in an incubator. […] Free drugs were dissolved in DMSO, and drug-loaded PEG-b-PLA micelles were in deionized water. The samples were diluted with cell culture media to make 0.10, 1.0, 10, 100 and 1000 nM in 96 well plates. […] The metabolic conversion of resazurin dye by each viable cancer cell was quantified using a fluorescence cell plate reader (SpectraMax M2, Molecular Devices, USA) to estimate cell viability. […] IC50 values of free drugs and drug-loaded PEG-b-PLA micelles were calculated based on median-effect equation using Compusyn software (ver. 1.0).
(§3) CI values were obtained at IC50 values for 2- or 3-drug combinations. CI<1, C=1, and CI>1 were used as criteria to determine whether 2- or 3-drug combinations are synergistic, additive, and antagonistic, respectively (FIGS. 13-20).

[6] = tested on: MCF-7 human breast cancer cells; experiment: as above; type: cell-based; settings: MCF-7, drug(s) in SDM or MDM (PEG-b-PLA micelles), 72 hours, nM printed in b258 only, PTX/17-AAG 3.2:1, RAP/17-AAG 1:1, RAP/PTX 1:1, RAP/PTX/17-AAG 1:5:1
Protocol: as §2, §3

[7] = tested on: 4T1 murine breast cancer cells; experiment: as above; type: cell-based; settings: drug(s) in SDM or MDM, 72 hours, unit inferred
Protocol: as §2, with “The samples were diluted with cell culture media to make 0.10, 1.0, 10, 100 and 1000 nM in 96 well plates.” left out
as §3

[8] = physchem; type: physicochemical
Protocol: The mixture is mixed and sonicated for five minutes. The solvent is then removed by rotoevaporation at approximately 60° C. to provide a film. Hot (˜60° C.) deionized water is added to the oil and the solution is allowed to cool to ˜23° C. The solution is then centrifuged to remove the sediment in a 1.5 mL microtube, at ˜13,200 rpm for 1 minute. The supernatant is collected and filtered through a 0.2 μm PTFE filter.
The resulting solution was dialyzed against H2O in 3500 MWCO tubing (SpectraPor). Resulting micelles were centrifuged at 5000g's for 10 minutes to precipitate unincorporated drug. […] Micelle solutions were concentrated by rotary evaporation under reduced pressure at room temperature, followed by centrifugation (5000g's for 10 minutes).

[9] = type: in vivo, rats; settings: micelle formulation compared to the standard vehicle that employs CrEL
[10] = dogs; cited from earlier work
[11] = Drug solubilization by PEG-b-PLA micelles (drug level in water, reverse phase HPLC); settings: SDM or MDM, PEG-b-PLA (4.2K:1.9K) micelles
Protocol: The drug-polymer mixture was dissolved in 0.50 mL acetonitrile (ACN). The ACN was removed at 60° C. under reduced pressure on a rotary evaporator resulting in the formation of a homogenous film, The drug-polymer film was rehydrated with 0.50 mL of DD H2O at 60° C. with gentle agitation resulting in a clear solution of drug-loaded PEG-b-PLA micelles. The micellar solution was filtered using a 0.45 μm filter, and the micelles were characterized in terms of size and loading by Dynamic Light Scattering (DLS) and HPLC respectively.
MDMS were prepared similarly to the SDMs by mixing 2.0 mg of each drug with 15 mg of the polymer. The procedure for the preparation and characterization of these micelles was identical to the SDMs.
The content of drug loaded in PEG-b-PLA micelles was quantified by reverse phase HPLC. The HPLC system used for quantifying was a Shimadzu prominence HPLC system (Shimadzu, JP), consisting of a LC-20AT pump, SIL-20AC HT autosampler, CTO-20AC column oven and a SPD-M20A diode array detector. A sample of 10 μL was injected into a Zorbax SB-C8 Rapid Resolution cartridge (4.6×75 mm, 3.5 micron, Agilent). The column temperature was maintained at 40° C. throughout the run. Two HPLC methods were developed to quantify the amount of the drug(s) loaded in PEG-b-PLA micelles.
The mobile phase was an isocratic mixture of 45% ACN and 54% aqueous phase containing 0.1% phosphoric acid and 1% methanol in DD H2O.
The mobile phase was a gradient mixture of ACN and aqueous phase containing 0.1% phosphoric acid and 1% methanol in DD H2O. […] With both HPLC methods samples were injected twice and reproducible and rapid separation of the drugs was achieved.
Mn of PEG and PLA of PEG-b-PLA was 4,200 and 1,900 g/mol, respectively (APC Inc., UK). ACN was removed by heating at 60° C. and reduced pressure. The resultant dry polymer film containing anti-cancer agent(s) was dissolved by addition of water (0.50 mL) at 60° C. with gentle agitation.
The resultant dry PEG-b-PLA film containing drugs was dissolved by the addition of water (0.50 mL) at 60° C. with gentle agitation.

[12] = drug without micelles; cited from earlier work
[13] = Solubilization with Poloxamer F68 (reference example); type: physicochemical; settings: analyte rapamycin
From the text: Several polymers that form micelles with drugs were surveyed for solubilizing a paclitaxel-rapamycin-17-AAG drug combination. […] For example, the PEG-PPG-PEG triblock polymer Poloxamer F68 is useful to solubilize many hydrophobic compounds such as resveratrol, a hydrophobic compound with reported anticancer activity. […] In these attempts, the micelles coagulated and deteriorated in aqueous solutions.
Results for forming micelles of the paclitaxel-rapamcyin-17-AAG combination with Poloxamer F68: […]

[14] = PTX/17-AAG 4.7:1, RAP/17-AAG 1:1, RAP/PTX 1:1, RAP/PTX/17-AAG 1:5:1
[15] = PTX/17-AAG 4.7:1, RAP/17-AAG 1:1, RAP/PTX 1:1, RAP/PTX/17-AAG 1:5:1, read-out: IC50

**Q.** Which “% drug loading (wt. drug(s)/wt. polymer)” value [1] does the source give for `C=CCNC1=C2C[C@@H](C)C[C@H](OC)[C@H](O)[C@@H](C)/C=C(\C)[C@H](OC(N)=O)[C@@H](OC)/C=C\C=C(/C)C(=O)NC(=CC1=O)C2=O` [17-AAG, 17-allylamino-17-demethoxygeldanamycin] here?
**A.** 13.0 ± 0.9% and 11.3 ± 0.3%

**Q.** What about the PEG-b-PLA micelle diameter [2] of the same molecule?
**A.** 39.3 ± 2.9 nm

**Q.** What about the “initial drug level in water” value ([3]; analyte 17-AAG) of the same molecule?
**A.** 3.90 ± 0.28 mg/mL

**Q.** And the “drug level @ 24 hr in water” value ([3]; analyte 17-AAG)?
**A.** 3840 ± 180 µg/mL

**Q.** What about the first-order rate constant ([4]; release of 17-AAG) of the same molecule?
**A.** 0.525 h⁻¹

**Q.** And the IC50 [5, 14]?
**A.** 771 ± 163 nM

**Q.** What about the IC50 [6] of the same molecule?
**A.** 266 ± 48 nM

**Q.** And the IC50 [7, 14]?
**A.** 118 ± 10 nM

**Q.** What about the 17-AAG solubilized ([8]; PEG-PLA (12:6 kDa) micelles) of the same molecule?
**A.** 1.5 mg/mL

**Q.** And the solubility ([8]; PEG-PLA (12:6 kDa) micelles in water, aqueous with cosolvent or surfactant or cyclodextrin)?
**A.** ~1500 µg/mL (≈ 2560 µM)

**Q.** And the “Renal clearance (CLrenal)” value [9]?
**A.** increased

**Q.** What about the “hepatic clearance (CLhepatic)” value [9] of the same molecule?
**A.** decreased

**Q.** And the maximum tolerated dose [10]?
**A.** 100-200 mg/m^2/day

**Q.** What about the “drug level in water” value ([11]; analyte 17-AAG) of the same molecule?
**A.** 3900 ± 280 µg/mL

**Q.** For `CO[C@H]1/C=C\C=C(/C)C(=O)NC2=CC(=O)C(NCCN(C)C)=C(C[C@@H](C)C[C@H](OC)[C@H](O)[C@@H](C)/C=C(\C)[C@@H]1OC(N)=O)C2=O` [17-DMAG, 17-dimethylamino-ethylamino-17-demethoxygeldanamycin], which maximum tolerated dose [10] is on record?
**A.** 8 mg/m^2/day

**Q.** With `CC(=O)O[C@@]12CO[C@@H]1C[C@H](O)[C@@]1(C)C(=O)[C@H](O)C3=C(C)[C@@H](OC(=O)[C@H](O)[C@@H](NC(=O)OC(C)(C)C)c4ccccc4)C[C@@](O)([C@@H](OC(=O)c4ccccc4)[C@H]21)C3(C)C` [Docetaxel] as the molecule, how does the “% drug loading (wt. drug(s)/wt. polymer)” value [1] read?
**A.** 14.2 ± 1.5% and 11.5 ± 0.5%

**Q.** What about the “% drug loading (wt. drug(s)/wt. polymer)” value ([1]; listed as DCTX) of the same molecule?
**A.** 11.5%

**Q.** And the PEG-b-PLA micelle diameter [2]?
**A.** 37.3 ± 1.7 nm

**Q.** What about the “drug precipitated at 24 hours” value ([3]; SDM, HPLC data) of the same molecule?
**A.** ~73%

**Q.** And the “% w/w drug(s) left @ 24 hr” value ([3]; analyte docetaxel)?
**A.** 26.8 ± 3.3 % w/w

**Q.** What about the “initial drug level in water” value ([3]; analyte docetaxel) of the same molecule?
**A.** 4.27 ± 0.44 mg/mL

**Q.** What about the “drug level @ 24 hr in water” value ([3]; analyte docetaxel) of the same molecule?
**A.** 1140 ± 30 µg/mL

**Q.** And the “time the micelles were physically stable” value ([3]; turbidity, ambient temperature)?
**A.** approximately 6 hours

**Q.** And the first-order rate constant ([4]; release of docetaxel)?
**A.** 0.379 h⁻¹

**Q.** And the “intrinsic solubility in water” value [12]?
**A.** 5.5 µg/mL

**Q.** And the “drug level in water” value ([11]; analyte docetaxel)?
**A.** 4270 ± 440 µg/mL

**Q.** What about the “drug level in water” value ([11]; analyte docetaxel, listed as DCTX) of the same molecule?
**A.** 4270 µg/mL

**Q.** Which “% drug loading (wt. drug(s)/wt. polymer)” value [1] does the source give for `CO[C@H]1C[C@@H]2CC[C@@H](C)[C@@](O)(O2)C(=O)C(=O)N2CCCC[C@H]2C(=O)O[C@H]([C@H](C)C[C@@H]2CC[C@@H](O)[C@H](OC)C2)CC(=O)[C@H](C)/C=C(\C)[C@@H](O)[C@@H](OC)C(=O)[C@H](C)C[C@H](C)/C=C/C=C/C=C/1C` [Rapamycin] here?
**A.** 6.6 ± 1.3%

**Q.** What about the PEG-b-PLA micelle diameter [2] of the same molecule?
**A.** 36.9 ± 1.3 nm

**Q.** What about the “% w/w drug(s) left @ 24 hr” value ([3]; analyte rapamycin) of the same molecule?
**A.** 91.5 ± 0.2 % w/w

**Q.** And the “initial drug level in water” value ([3]; analyte rapamycin)?
**A.** 1.84 ± 0.26 mg/mL

**Q.** And the “drug level @ 24 hr in water” value ([3]; analyte rapamycin)?
**A.** 1680 ± 230 µg/mL

**Q.** What about the first-order rate constant ([4]; release of rapamycin) of the same molecule?
**A.** 0.100 h⁻¹ and 0.081 h⁻¹

**Q.** And the IC50 [5, 15]?
**A.** 590 ± 110 nM

**Q.** What about the IC50 ([6]; read-out: IC50) of the same molecule?
**A.** 255 ± 37 nM

**Q.** What about the IC50 [7, 15] of the same molecule?
**A.** > 100000 nM

**Q.** What about the loading into micelles [13] of the same molecule?
**A.** 4%

**Q.** And the “drug level in water” value ([11]; analyte rapamycin)?
**A.** 1840 ± 260 µg/mL
